From publication PMC11278660, “Molecular, Genetic, and Biochemical Characterization of OXA-484 Carbapenemase, a Difficult-to-Detect R214G Variant of OXA-181” (Microorganisms, 2024)
Like-named read-outs stand apart in the source and are kept apart here.

Experiments:
OXA-484 [1] = test system: T1, OXA-484; assay: UV spectrophotometry, initial rates, Eadie-Hofstee plot; format: biochemical, Escherichia coli; conditions: 30 °C, 100 mM sodium phosphate, pH 7.0
T1 construct: gene blaOXA-484; mature beta-lactamase AA20-265 in pET41b(+), expressed in E. coli BL21(DE3), purified; gene 798 bp; natural variant equal to OXA-181 with R214G
From the text: UV spectrophotometry, initial rates, Eadie-Hofstee plot on OXA-484

OXA-484 [2] = test system: T1, OXA-484; assay: inhibition of beta-lactam hydrolysis; format: biochemical, Escherichia coli; conditions: reporter substrate not stated

Compound: CO/N=C(\C(=O)N[C@@H]1C(=O)N2C(C(=O)O)=C(COC(C)=O)CS[C@H]12)c1csc(N)n1 [Cefotaxime]
- Km (OXA-484 [1]; read-out: Km (μM) / OXA-181): > 1000 µM

Compound: C[C@@H](O)[C@H]1C(=O)N2C(C(=O)O)=C(S[C@@H]3CN[C@H](C(=O)N(C)C)C3)[C@H](C)[C@H]12 [Meropenem]
- Km (OXA-484 [1]; read-out: Km (μM) / OXA-484): 263 ± 9.4 µM

Compound: C[C@@H](O)[C@H]1C(=O)N2C(C(=O)O)=C(SCCN=CN)C[C@H]12 [Imipenem]
- Km (OXA-484 [1]; read-out: Km (μM) / OXA-484): 6 ± 2.1 µM

Compound: O=C(O)[C@H]1/C(=C/CO)O[C@@H]2CC(=O)N21 [clavulanic acid]
- IC50 (OXA-484 [2]): 19 µM

Compound: CO[C@@]1(NC(=O)C(C(=O)O)c2ccsc2)C(=O)N2[C@@H](C(=O)O)C(C)(C)S[C@@H]21 (stereo partly shown) [Temocillin]
- Km (OXA-484 [1]; read-out: Km (μM) / OXA-484): 178 ± 25.1 µM

Compound: CC1(C)S[C@@H]2[C@H](NC(=O)[C@H](N)c3ccccc3)C(=O)N2[C@H]1C(=O)O [Ampicillin]
- Km (OXA-484 [1]; read-out: Km (μM) / OXA-484): 653 ± 72.2 µM

Compound: CC1(C)S[C@@H]2[C@H](NC(=O)Cc3ccccc3)C(=O)N2[C@H]1C(=O)O [Benzylpenicillin]
- Km (OXA-484 [1]; read-out: Km (μM) / OXA-484): 33 ± 1.9 µM

Compound: C[C@@H](O)[C@H]1C(=O)N2C(C(=O)O)=C(S[C@@H]3CN[C@H](C(=O)Nc4cccc(C(=O)O)c4)C3)[C@H](C)[C@H]12 [Ertapenem]
- Km (OXA-484 [1]; read-out: Km (μM) / OXA-484): 27 ± 1.2 µM

Compound: C[C@]1(Cn2ccnn2)[C@H](C(=O)O)N2C(=O)C[C@H]2S1(=O)=O [tazobactam]
- IC50 (OXA-484 [2]): 1.09 µM

Compound: CC(=O)OCC1=C(C(=O)O)N2C(=O)[C@@H](NC(=O)Cc3cccs3)[C@H]2SC1 [Cefalotin]
- Km (OXA-484 [1]; read-out: Km (μM) / OXA-484): 37 ± 2.6 µM
